Measured values reported in patent publication US20170182031A1, “REDUCING DRUG LIKING IN A SUBJECT” (Purdue Pharma, priority 2014, published 2017).
Read-outs that look alike come from different tables or passages of the source.

Assays:
[1] = cited from earlier work

With `C=CCN1CC[C@]23c4c5ccc(O)c4O[C@H]2C(=O)CC[C@@]3(O)[C@H]1C5` [naloxone] as the compound, how does the “Time by which mean plasma naloxone concentration was BLQ” value (naloxone 1.875 μg/kg IV) read?
The value was ≤ 15 min.

And the “Time by which mean plasma naloxone concentration was BLQ” value (naloxone 15 μg/kg IV)?
Its value is ≤ 120 min.

And the “Time of maximum mean plasma naloxone concentration” value (post-infusion, each treatment)?
The value was 5 min.

And the oral bioavailability [1]?
Its oral bioavailability is < 3%.
